This assay concerns the target T1, recombinant human aromatase (CYP19) (Homo sapiens, UniProt P11511).
T1 construct: purchased GENTEST 456260; host or cells: baculovirus/insect cells
T1 sequence (P11511 1-503): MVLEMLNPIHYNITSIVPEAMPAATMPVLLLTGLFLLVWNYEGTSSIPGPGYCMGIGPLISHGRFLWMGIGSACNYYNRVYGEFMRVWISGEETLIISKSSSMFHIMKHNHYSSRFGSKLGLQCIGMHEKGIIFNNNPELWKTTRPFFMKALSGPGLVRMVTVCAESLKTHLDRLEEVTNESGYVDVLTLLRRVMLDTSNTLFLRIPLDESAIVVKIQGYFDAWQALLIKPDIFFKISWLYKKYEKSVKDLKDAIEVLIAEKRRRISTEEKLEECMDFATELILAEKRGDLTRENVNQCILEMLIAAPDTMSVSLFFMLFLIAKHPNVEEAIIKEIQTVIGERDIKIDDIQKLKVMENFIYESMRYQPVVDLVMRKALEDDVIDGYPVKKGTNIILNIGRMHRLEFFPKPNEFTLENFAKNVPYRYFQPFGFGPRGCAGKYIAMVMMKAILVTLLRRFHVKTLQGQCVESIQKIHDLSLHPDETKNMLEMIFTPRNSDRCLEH
As to the kind of experiment: aromatase (CYP19) inhibition assay, fluorometric substrate dibenzylfluorescein (DBF). The format is biochemical. As to conditions: recombinant human aromatase (baculovirus/insect cell expressed), test compounds 2×10^−5 to 10^−9 M, 37° C. for 30 minutes. The protocol: Compounds of the invention were evaluated for inhibiting aromatase enzyme using the following aromatase (CYP19) inhibition assay which detects aromatase inhibitors utilizing recombinant human aromatase (baculovirus/insect cell expressed) and the fluorometric substrate dibenzylfluorescein (DBF). Aromatase will metabolize DBF to fluorescein which will give the fluorescent signal. The assay is conducted in 96-well black, Falcon plate (BD Biosciences, Cat. No. 353241) in the total volume of 100 μL per well. 40 μL of the Cofactor/Dilution buffer (1) is added to the plate followed by 10 μL of serially diluted test compounds in duplicates for final concentration of 2×10^−5 to 10^−9 M, or 10 μL of phosphate buffer for positive and background control wells. After 10 minutes of preincubation at 37° C., the reaction is initiated by adding 50 μL of prewarmed Enzyme/Substrate Mix (2) to the test compound wells, and positive control wells (maximum activity of CYP19, which represents 100%). The plate is incubated at 37° C. for 30 minutes. To stop the reaction, 37.5 μL of 2 N NaOH is added to all wells. For background controls, 50 μL of Enzyme/Substrate Mix (2) are added into background control wells. The plate is left at 37° C. incubator for 2 hours to develop adequate signal to background ratio. Fluorescence per well is measured in the fluorescent plate reader. The metabolite concentration is measured using excitation wavelength of 485 nm and emission wavelength of 538 nm. Inhibition of aromatase by test compounds is expressed in percentage relative to positive controls. IC50 values for the test compounds are derived from non-liner curve fitting. • (1) Cofactor/Dilution buffer: 50 mM phosphate buffer, pH=7.4; 1× NADPH regenerating system A (20× stock, GENTEST, Cat. No. 451220); 1× NAPDH regenerating system B (100× stock, GENTEST, Cat. No. 451200) and 0.2 mg/mL control protein (Insect Cell Control Supersomes, GENTEST, Cat. No. 456200) • (2) Enzyme/Substrate Mix: 50 mM phosphate buffer, pH=7.4, 0.02 nmole/mL human aromatase protein (Human CYP19+P450 Reductase Supersomes, GENTEST, Cat. No. 456260); 0.4 μM dibenzylfluorescein (DBF, GENTEST, Cat. No. 451750, prepared at 2 mM concentration in acetonitrile); 0.5 mg/mL control protein (Insect Cell Control Supersomes, GENTEST, Cat. No. 456200).

On to `COc1cc(F)ccc1C(C)(C)CC(O)(Cc1cc2ccncc2[nH]1)C(F)(F)F` (stereo not shown) [1,1,1-Trifluoro-4-(4-fluoro-2-methoxyphenyl)-4-methyl-2-(1H-pyrrolo[2,3-c]pyridin-2-ylmethyl)pentan-2-ol], for which the aromatase inhibition result was “showed aromatase inhibition”. The result for `CC(C)C(O)(Cc1cc2ccncc2[nH]1)CC(C)(C)c1cc(Cl)cc2c1OCC2` (stereo not shown) [5-(5-Chloro-2,3-dihydrobenzofuran-7-yl)-2,5-dimethyl-3-(1H-pyrrolo[2,3-c]pyridin-2-ylmethyl)hexan-3-ol] reads “showed aromatase inhibition”; that for `COc1ccc(F)cc1C(C)(C)CC(O)(Cc1cc2cncnc2[nH]1)C(F)(F)F` (stereo not shown) [1,1,1-Trifluoro-4-(5-fluoro-2-methoxyphenyl)-4-methyl-2-(7H-pyrrolo[2,3-d]pyrimidin-6-ylmethyl)pentan-2-ol], “showed aromatase inhibition”; that for `COc1ccc(F)cc1C(C)(C)CC(O)(Cc1cc2cnccc2[nH]1)C(F)F` (stereo not shown) [1,1-Difluoro-4-(5-fluoro-2-methoxyphenyl)-4-methyl-2-(1H-pyrrolo[3,2-c]pyridin-2-ylmethyl)pentan-2-ol], “showed aromatase inhibition”. Regarding `CC(C)(CC(O)(Cc1cc2cnccc2[nH]1)C(F)(F)F)c1cccc(F)c1` (stereo not shown) [1,1,1-Trifluoro-4-(3-fluorophenyl)-4-methyl-2-(1H-pyrrolo[3,2-c]pyridin-2-ylmethyl)pentan-2-ol], the aromatase inhibition entry is reported as “showed aromatase inhibition”.

On to `CC(C)(CC(O)(Cc1cc2ccncc2[nH]1)C(F)(F)F)c1ccccc1` (stereo not shown) [1,1,1-Trifluoro-4-methyl-4-phenyl-2-(1H-pyrrolo[2,3-c]pyridin-2-ylmethyl)pentan-2-ol], for which the aromatase inhibition entry is “showed aromatase inhibition”. The same measure for `Cc1cc2c(c(C(C)(C)CC(O)(Cc3cc4ccncc4[nH]3)C(F)(F)F)c1)OCC2` (stereo not shown) [1,1,1-Trifluoro-4-methyl-4-(5-methyl-2,3-dihydrobenzofuran-7-yl)-2-(1H-pyrrolo[2,3-c]pyridin-2-ylmethyl)pentan-2-ol]: “showed aromatase inhibition”. The same measure for `CC(C)(CC(O)(Cc1cc2cnccc2[nH]1)C(F)(F)F)c1cccc2c1OCC2` (stereo not shown) [4-(2,3-Dihydrobenzofuran-7-yl)-1,1,1-trifluoro-4-methyl-2-(1H-pyrrolo[3,2-c]pyridin-2-ylmethyl)pentan-2-ol]: “showed aromatase inhibition”; for `CC(C)(CC(O)(Cc1cc2cnccc2[nH]1)C(F)(F)F)c1ccc(F)cc1O` (stereo not shown) [5-Fluoro-2-[4,4,4-trifluoro-3-hydroxy-1,1-dimethyl-3-(1H-pyrrolo[3,2-c]pyridin-2-ylmethyl)butyl]phenol]: “showed aromatase inhibition”; for `COc1ccc(F)cc1C(C)(C)CC(O)(Cc1cc2ccncc2[nH]1)C(F)(F)F` (stereo not shown) [1,1,1-Trifluoro-4-(5-fluoro-2-methoxyphenyl)-4-methyl-2-(1H-pyrrolo[2,3-c]pyridin-2-ylmethyl)pentan-2-ol]: “showed aromatase inhibition”.

Turning to `Cc1ccc(F)cc1C(C)(C)CC(O)(Cc1cc2ccncc2[nH]1)C1CC1` (stereo not shown) [2-Cyclopropyl-4-(5-fluoro-2-methylphenyl)-4-methyl-1-(1H-pyrrolo[2,3-c]pyridin-2-yl)pentan-2-ol], the aromatase inhibition result is “showed aromatase inhibition”.

On to `COc1ccc(F)cc1C(C)(C)CC(O)(Cc1cc2ccncc2[nH]1)C1CC1` (stereo not shown) [2-Cyclopropyl-4-(5-fluoro-2-methoxyphenyl)-4-methyl-1-(1H-pyrrolo[2,3-c]pyridin-2-yl)pentan-2-ol], for which the aromatase inhibition entry is “showed aromatase inhibition”. Take `COc1ccc(F)cc1C(C)(C)CC(O)(Cc1cc2ccncc2[nH]1)C(C)C` (stereo not shown) [5-(5-Fluoro-2-methoxyphenyl)-2,5-dimethyl-3-(1H-pyrrolo[2,3-c]pyridin-2-ylmethyl)hexan-3-ol]: the aromatase inhibition result is reported as “showed aromatase inhibition”. For `CC(C)(CC(O)(Cc1cc2cnccc2[nH]1)C(F)(F)F)c1ccc(F)cc1` (stereo not shown) [1,1,1-Trifluoro-4-(4-fluorophenyl)-4-methyl-2-(1H-pyrrolo [3,2-c]pyridin-2-ylmethyl)pentan-2-ol], the aromatase inhibition result is recorded as “showed aromatase inhibition”.

With `CC(C)(CC(O)(Cc1cc2ccncc2[nH]1)C(F)(F)F)c1ccc(F)cc1` (stereo not shown) [1,1,1-Trifluoro-4-(4-fluorophenyl)-4-methyl-2-(1H-pyrrolo[2,3-c]pyridin-2-ylmethyl)pentan-2-ol], the aromatase inhibition result is “showed aromatase inhibition”.

For the compound `COc1ccc(F)cc1C(C)(C)CC(O)(Cc1cc2ccncc2[nH]1)C(C)(C)C` (stereo not shown) [5-(5-Fluoro-2-methoxyphenyl)-2,2,5-trimethyl-3-(1H-pyrrolo[2,3-c]pyridin-2-ylmethyl)hexan-3-ol], the aromatase inhibition result is given as “showed aromatase inhibition”.

Source of the values: patent US20060030608A1, “Anti aromatase compounds pharmaceutical compositions and uses thereof” (Boehringer Ingelheim Pharmaceuticals, Inc., priority 2004, published 2006).
